The source of these data is patent US8946231B2, “P2X3, receptor antagonists for treatment of pain” (Merck Sharp & Dohme Corp., priority 2009, dated 2015).

The assay concerns the target T1, human P2X3 (Homo sapiens, UniProt P56373).
T1 construct: expressed in transfected cells
T1 sequence (P56373 1-397): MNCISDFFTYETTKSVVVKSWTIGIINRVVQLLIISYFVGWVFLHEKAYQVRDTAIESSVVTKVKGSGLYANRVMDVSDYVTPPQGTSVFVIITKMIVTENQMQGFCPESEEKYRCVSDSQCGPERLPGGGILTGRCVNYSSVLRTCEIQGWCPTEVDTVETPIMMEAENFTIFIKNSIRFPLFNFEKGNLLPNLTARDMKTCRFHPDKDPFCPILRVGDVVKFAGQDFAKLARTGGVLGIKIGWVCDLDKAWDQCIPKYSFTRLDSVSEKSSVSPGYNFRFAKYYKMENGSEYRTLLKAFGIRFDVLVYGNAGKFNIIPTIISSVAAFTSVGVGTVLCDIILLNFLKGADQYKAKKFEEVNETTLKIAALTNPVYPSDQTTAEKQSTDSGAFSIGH
In words: Intracellular Calcium Measurement to Assess Antagonist Affinity (FLIPR, Fluo-4). As to conditions: cells expressing human P2X3; agonist α,β-meATP at EC50; antagonist added 10 min before agonist. In kind it is cell-based. From the text: Generation of a Human P2X3 and P2X2/3 Stable Cell Line—Human P2X3 receptor cDNA (Accession number NM_002559) was subcloned as a 5′XhoI and 3′HindIII fragment into the expression vector pcDNA5/FRT (Invitrogen). Human P2X2 receptor cDNA (Accession number NM_174873) was subcloned as a 5′EcoRI and 3′NotI fragment into the expression vector pIRESneo2 (BD Biosciences Clontech). The human P2X3 expression construct was transfected using Lipofectamine 2000 (Invitrogen) into Ftp-in—293 cells (Invitrogen) according to the manufacturer's directions. Cells positive for flp-mediated recombination of […] P2X3 were selected using 150 μg/ml hygromycin. The stable human P2X3 cell line was co-transfected with the human P2X2 expression construct using Lipofectamine 2000 as above and co-transfected cells selected using […] hygromycin and 1 mg/ml G418. The stable P2X3 cell line was propagated in DMEM, 10% FBS, 100 μg/ml hygromycin, and 100 units/ml penicillin and 100 μg/ml streptomycin, and maintained at 37° and 95% humidity. The stable P2X213 cell line was propagated as above with the addition of 500 μg/ml G418.
Intracellular Calcium Measurement to Assess Antagonist Affinity—A fluorescent imaging plate reader (FLIPR; Molecular Devices) was used to monitor intracellular calcium levels using the calcium-chelating dye Fluo-4 (Molecular Probes). The excitation and emission wavelengths used to monitor fluorescence were 488 nm and 530 nm, respectively. Cells expressing either human P2X3 or human P2X2/3 were plated at a density of 20,000 cells/well (20 μl/well) in 384-well black-walled plates approximately 20 hours before beginning the assay. […] During this period fluorescence data is collected at 3 sec intervals followed by 10 sec intervals. […] Following agonist addition fluorescence was measured at 5 sec intervals and analyzed based on the increase in peak relative fluorescence units (RFU) compared to the basal fluorescence. Peak fluorescence was used to determine the inhibitory effect at each concentration of antagonist by the following equation: % Inhibition=100*(1−((RFU(drug)−RFU(control)/(RFU(DMSO only)−RFU(control)))) In vitro Electrophysiological Assay—Cells expressing human P2X3 receptors were grown to a confluence of 65-85% 20 to 32 hours prior to assay. The cells were dissociated with trypsin, centrifuged, and resuspended in bath solution at a cell density of 1×10^6 cells/ml and loaded onto PatchXpress. The bath solution contained 150 mM NaCl, 4 mM KCl, 2 mM CaCl2, 1.2 mM MgCl2, 10 mM HEPES, and 11.1 mM glucose, at pH 7.2. […]
(In general: Calcium flux is commonly read through the fluorescence of an indicator in the cells.)

In the case of `C[C@@H](NC(=O)c1cn(-c2ccc(F)cn2)nc1-c1cnoc1)c1ccc(C(F)(F)F)[n+]([O-])c1` [Example 1.103], the IC50 (as a rule, the concentration at which inhibition is half-maximal) was 125 nM.

In the case of `Cc1ccc(-c2nc(-c3ccccc3)c(C(=O)N[C@H](C)c3ccc(C(F)(F)F)[n+]([O-])c3)o2)nc1` [Example 2.5], the concentration for half-maximal inhibition (IC50) stood at 84 nM.

For `CC(C)Cc1nn(-c2ccc(F)cn2)cc1C(=O)N[C@H](C)c1ccc(C(F)(F)F)[n+]([O-])c1` [Example 1.109], the half-inhibitory concentration (IC50) turned out to be 34 nM.

As for `C[C@@H](NC(=O)c1cn(-c2ccc(F)cn2)nc1-c1ccccc1)c1ccc(C(F)(F)F)[n+]([O-])c1` [Example 1.74, 1-(5-Fluoropyridin-2-yl)-N-{(1R)-1-[1-oxido-6-(trifluoromethyl)pyridin-3-yl]ethyl}-3-phenyl-1H-pyrazole-4-carboxamide], the IC50 was determined as 53 nM.
